By IC50 is commonly meant the concentration that gives 50% inhibition.

A value given as a limit tells only on which side of the number the result lay.

Test [1] deals with T1, Tyrosine-protein kinase JAK3 (Homo sapiens, UniProt P52333).
T1 sequence (P52333 whole entry): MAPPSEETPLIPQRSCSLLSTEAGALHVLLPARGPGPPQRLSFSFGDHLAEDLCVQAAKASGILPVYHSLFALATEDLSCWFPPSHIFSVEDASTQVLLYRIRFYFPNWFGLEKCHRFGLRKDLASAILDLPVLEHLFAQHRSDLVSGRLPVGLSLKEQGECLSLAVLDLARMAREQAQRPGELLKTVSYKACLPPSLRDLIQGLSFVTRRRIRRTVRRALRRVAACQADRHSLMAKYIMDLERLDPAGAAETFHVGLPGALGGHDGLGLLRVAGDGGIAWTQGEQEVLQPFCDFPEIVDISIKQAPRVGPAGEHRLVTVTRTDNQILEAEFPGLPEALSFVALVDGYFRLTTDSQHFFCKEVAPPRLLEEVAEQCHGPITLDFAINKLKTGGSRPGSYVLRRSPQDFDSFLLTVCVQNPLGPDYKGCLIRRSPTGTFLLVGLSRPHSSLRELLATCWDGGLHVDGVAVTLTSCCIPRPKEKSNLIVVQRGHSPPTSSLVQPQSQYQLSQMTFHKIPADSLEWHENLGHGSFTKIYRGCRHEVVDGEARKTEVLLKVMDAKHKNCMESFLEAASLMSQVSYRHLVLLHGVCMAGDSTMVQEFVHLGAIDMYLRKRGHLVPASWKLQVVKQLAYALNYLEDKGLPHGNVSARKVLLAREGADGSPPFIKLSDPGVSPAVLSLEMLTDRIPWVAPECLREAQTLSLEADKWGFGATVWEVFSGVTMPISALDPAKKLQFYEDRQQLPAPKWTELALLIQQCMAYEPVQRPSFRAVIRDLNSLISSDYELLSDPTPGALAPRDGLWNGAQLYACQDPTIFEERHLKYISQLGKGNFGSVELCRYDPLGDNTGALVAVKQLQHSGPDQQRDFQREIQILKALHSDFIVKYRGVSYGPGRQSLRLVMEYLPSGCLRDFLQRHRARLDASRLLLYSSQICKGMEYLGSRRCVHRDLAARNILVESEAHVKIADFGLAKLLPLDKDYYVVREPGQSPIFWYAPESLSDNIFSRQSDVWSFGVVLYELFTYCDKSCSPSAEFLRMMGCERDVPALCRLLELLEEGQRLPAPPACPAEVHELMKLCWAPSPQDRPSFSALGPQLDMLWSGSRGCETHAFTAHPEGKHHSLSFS
Briefly: JAK3 Enzymatic Assay: The assay has been performed using the JAK3 kinase domain (residues 781-1124 of the 1124 amino acid long full-length sequence, accession number P52333 of UniProtKB/Swiss-Prot databse). […] The JAK3 kinase assay was run with a final enzyme concentration of 1 nM, in the presence of 22 uM ATP, 1 nM 33P-γ-ATP and 40 uM of substrate BioDBn*306 (Amino acid sequence: LPLDKDYYWREPGQ-SEQ ID NO: 1). The peptidic substrate was purchased from American Peptide Company (Sunnyvale, Calif.).

In test [2] the target is Tyrosine-protein kinase JAK2 (Homo sapiens, UniProt O60674). Briefly: JAK2 Enzymatic Assay: The assay has been performed using the commercial available JAK2 kinase domain (Invitrogen, Eugene, Oreg.). […] The JAK2 kinase assay was run with a final enzyme concentration of 1 nM, in the presence of 60 uM ATP, 3 nM 33P-γ-ATP and 64 uM of substrate BioDBn*306 (Aminoacid sequence: LPLDKDYYWREPGQ⿿SEQ ID NO: 1). The peptidic substrate was purchased from American Peptide Company (Sunnyvale, Calif.). Specific JAK2, JAK1 or JAK3 peptide substrates are trans-phosphorylated by JAKs kinase in the presence of ATP traced with 33P-γ-ATP. At the end of the phosphorylation reaction, the unreacted ATP, cold and radioactive, is captured by an excess of Dowex ion exchange resin that eventually settles by gravity to the bottom of the reaction plate. The supernatant is subsequently withdrawn and transferred into a counting plate that is then evaluated by […].
Chain of Tyrosine-protein kinase JAK2 (O60674 whole entry, the tested form may be a part): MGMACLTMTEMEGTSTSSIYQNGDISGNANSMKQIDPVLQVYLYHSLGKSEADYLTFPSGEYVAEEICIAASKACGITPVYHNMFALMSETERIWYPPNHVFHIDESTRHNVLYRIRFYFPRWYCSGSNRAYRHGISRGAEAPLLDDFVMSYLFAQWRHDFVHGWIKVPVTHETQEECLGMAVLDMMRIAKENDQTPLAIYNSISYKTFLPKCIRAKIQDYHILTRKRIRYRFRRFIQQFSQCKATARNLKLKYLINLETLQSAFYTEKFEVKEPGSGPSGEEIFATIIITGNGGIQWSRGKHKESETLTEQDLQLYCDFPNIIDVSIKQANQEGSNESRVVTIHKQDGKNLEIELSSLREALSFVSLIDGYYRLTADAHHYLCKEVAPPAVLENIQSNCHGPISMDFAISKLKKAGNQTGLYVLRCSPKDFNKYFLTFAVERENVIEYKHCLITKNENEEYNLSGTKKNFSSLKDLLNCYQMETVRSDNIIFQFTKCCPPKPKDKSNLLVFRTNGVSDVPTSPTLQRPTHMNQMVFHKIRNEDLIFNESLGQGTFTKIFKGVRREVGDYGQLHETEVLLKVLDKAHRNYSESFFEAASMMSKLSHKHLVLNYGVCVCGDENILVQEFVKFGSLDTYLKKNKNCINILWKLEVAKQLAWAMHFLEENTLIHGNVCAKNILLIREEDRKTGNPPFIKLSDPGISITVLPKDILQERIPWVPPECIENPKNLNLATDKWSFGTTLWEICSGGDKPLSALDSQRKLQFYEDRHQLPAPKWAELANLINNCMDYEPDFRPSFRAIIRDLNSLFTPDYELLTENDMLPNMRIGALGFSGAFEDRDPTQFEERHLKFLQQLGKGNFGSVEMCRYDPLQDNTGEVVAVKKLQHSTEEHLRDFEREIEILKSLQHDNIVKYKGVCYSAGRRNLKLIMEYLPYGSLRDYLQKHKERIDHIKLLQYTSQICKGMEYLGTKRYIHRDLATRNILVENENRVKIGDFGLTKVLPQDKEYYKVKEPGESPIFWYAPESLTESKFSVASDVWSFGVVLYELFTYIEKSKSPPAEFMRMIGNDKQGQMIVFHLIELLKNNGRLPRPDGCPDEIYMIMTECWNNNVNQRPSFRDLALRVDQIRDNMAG

As for `CCc1ccc(Cl)cc1-n1nc(-c2ccnc(N)n2)cc1C(N)=O`, the IC50 in test [1] and in test [2] was under 5 µM each time.

The record behind these values is ChEMBL document CHEMBL3886598, “Pyrazolyl-pyrimidine derivatives as kinase inhibitors” (2016).
